Here are results for two molecules from US7691374B2, “Method for increasing the efficacy of anti-tumor agents by anti-endoglin antibody” (Health Research, Inc., priority 2002, dated 2010).

The subject of test [1] is murine vessels in the tumors. Kind of test: Count of murine vessels in tumors after therapy. The format is in vivo, mouse. To be noted: large tumors at end of experiment of FIG. 7. An excerpt:
(§1) Large tumors of two different sizes (i.e., 350-450 mm^3 and 100-250 mm^3) were obtained from each group of mice for immunostaining and vessel counting. Sections of the tumors were stained with individual mAbs or a mixture of anti-human CD105 and CD31 mAbs and a mixture of anti-mouse CD105 and CD31 mAbs as described above. Human and mouse vessels were counted separately as described above. An average of vessel counts in the two tumors was compared between different groups.
(§2) Human and murine blood vessels were immunostained in the large human tumors from the chimera mice after the mice were sacrificed at the end of experiment shown in FIG. 7. Number of murine vessels in the tumors was 52, 47, 47 and 34 per 100× field for groups A, B, C and D, respectively (see FIG. 7 for the groups). Therefore, SN6j (group B) and CPA (group C) caused only a small decrease (approximately 10%) in the number of murine vessels in the tumors compared with the control (group A). However, combination of SN6j and CPA (group D) caused a larger (i.e., 35%) decrease in the number of murine vessels. […] CPA was not effective for inhibiting human vessels and only weakly suppressive against murine vessels.

The subject of test [2] is human vessels in the tumors. Kind of test: Count of human vessels in tumors after therapy. The format is in vivo. To be noted: large tumors at end of experiment of FIG. 7.
Source text: as §1, §2

The test system of test [3] is Colon-26 tumors. As to the kind of experiment: Therapy of established Colon-26 tumors in BALB/c mice. It is filed as in vivo. To be noted: SN6j 1.8 μg/g i.v., DOX 0.5 μg/g i.p. The protocol:
Antiangiogenic Therapy of Preformed Colon Tumors in Mice. Colon-26 cells (1.25×10^5 cells in 0.1 ml PBS) were inoculated subcutaneously (s.c.) into left flank of BALB/c mice. […] Doxorubicin (0.5 μg/g body weight) was injected intraperitoneally (i.p.) into mice. The administration was repeated three times at 4 days intervals.
Follow-up of Treatment Efficacy.
SN6j (1.8 μg/g body weight) and MOPC195v (1.8 μg/g body weight) were injected i.v. while DOX (0.5 μg/g body weight) was injected i.p. The injectections were repeated three times at 4 days intervals.
Details of the analysis were described by Yokoyama et al. (31), Yu et al. (32) and us (25). […] This improvement persisted until the end of the therapy experiment (Table 3).

`O=P1(N(CCCl)CCCl)NCCCO1` (stereo not shown) [CPA, cyclophosphamide]: in test [1], the “decrease in the number of murine vessels compared with the control” value is on record as “approximately 10%” and the “number of murine vessels in the tumors per 100× field” value is recorded as 47 per 100× field. Also, the “number of human vessels in the tumors per 100× field” value in test [2] was 36 per 100× field.

For the molecule `COc1cccc2c1C(=O)c1c(O)c3c(c(O)c1C2=O)C[C@@](O)(C(=O)CO)C[C@@H]3O[C@H]1C[C@H](N)[C@H](O)[C@H](C)O1` [DOX, Doxorubicin], the “Fractional tumor volume (FTV) relative to untreated controls” value in test [3] (Day 4 after tumor cell inoculation, all mice) came out at 0.954; in test [3] (Day 4 after tumor cell inoculation, tumors of >4 mm^3 at onset of therapy) it was 0.979; in test [3] (Day 7 after tumor cell inoculation, all mice), 0.741; in test [3] (Day 7 after tumor cell inoculation, tumors of >4 mm^3 at onset of therapy), 0.753; in test [3] (Day 9 after tumor cell inoculation, all mice), 0.895; in test [3] (Day 9 after tumor cell inoculation, tumors of >4 mm^3 at onset of therapy), 0.954. For the same molecule, the “Fractional tumor volume (FTV) relative to untreated controls” value worked out at 0.956 in test [3] (Day 11 after tumor cell inoculation, all mice); 1.018 in test [3] (Day 11 after tumor cell inoculation, tumors of >4 mm^3 at onset of therapy); 0.860 in test [3] (Day 13 after tumor cell inoculation, all mice); 1.009 in test [3] (Day 13 after tumor cell inoculation, tumors of >4 mm^3 at onset of therapy); 0.976 in test [3] (Day 15 after tumor cell inoculation, all mice); 1.159 in test [3] (Day 15 after tumor cell inoculation, tumors of >4 mm^3 at onset of therapy). Also, the “Fractional tumor volume (FTV) relative to untreated controls” value is listed as 0.813 in test [3] (Day 17 after tumor cell inoculation, all mice); 0.954 in test [3] (Day 17 after tumor cell inoculation, tumors of >4 mm^3 at onset of therapy); 0.873 in test [3] (Day 19 after tumor cell inoculation, all mice); 1.101 in test [3] (Day 19 after tumor cell inoculation, tumors of >4 mm^3 at onset of therapy).
